Data from patent publication US11084800B2 (Achillion Pharmaceuticals, Inc., priority 2017, dated 2021).

Target: Human Factor D (Homo sapiens (Human), UniProt P00746)
Experiment: Human Factor D Assay
Type: biochemical
Conditions: Factor D inhibition, assay of Example 10; read-out: IC5 (Stars)
In short: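 Thioester substrate Z-L-Lys-SBz (100 μM) with Ellman's reagent DTNB (100 μM) reports activity of 80 nM human serum-derived enzyme, kinetically at 405 nm over 30 min. Compound preincubated 5 min, room temperature, pH 7.5 Tris/1 M NaCl; IC50 by nonlinear fit of rates.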

Human Factor D, sequence (P00746 26-253): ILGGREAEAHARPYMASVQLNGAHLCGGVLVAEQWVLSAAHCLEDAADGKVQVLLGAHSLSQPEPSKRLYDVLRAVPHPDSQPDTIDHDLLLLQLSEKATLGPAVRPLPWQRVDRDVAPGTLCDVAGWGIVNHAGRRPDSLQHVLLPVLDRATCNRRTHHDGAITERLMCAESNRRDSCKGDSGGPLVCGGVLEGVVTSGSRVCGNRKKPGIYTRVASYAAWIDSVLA

Q: With `CC(=O)c1nn(CC(=O)N2[C@H](C(=O)Nc3nc(Br)ccc3C)C[C@@]3(CN(C(C)C)C(C)C)C[C@@H]23)c2c(C)cc(-c3cnc(C)nc3)cc12` [Compound 415, (1R,3S,5R)-2-(2-(3-acetyl-7-methyl-5-(2-methylpyrimidin-5-yl)-1H-indazol-1-yl)acetyl)-N-(6-bromo-3-methylpyridin-2-yl)-5-((diisopropylamino)methyl)-2-azabicyclo[3.1.0]hexane-3-carboxamide] as the compound, how does the IC50 read?
A: < 1000 nM

Q: For `CC(=O)c1cn(CC(=O)N2[C@H](C(=O)Nc3nc(Br)ccc3C)C[C@@]3(C)C[C@@H]23)c2ccc(-c3cnc(C)nc3)cc12` [Compound 416, (1R,3S,5R)-2-(2-(3-acetyl-5-(2-methylpyrimidin-5-yl)-1H-indol-1-yl)acetyl)-N-(6-bromo-3-methylpyridin-2-yl)-5-methyl-2-azabicyclo[3.1.0]hexane-3-carboxamide], which IC50 is on record?
A: < 1000 nM

Q: Which IC50 does the source give for `CC(=O)c1nn(CC(=O)N2C[C@@](F)(CF)C[C@H]2C(=O)Nc2nc(Br)c(F)cc2C)c2c(C)nc(-c3cnc(C)nc3)cc12` [Compound 417, (2S,4R)-1-(2-(3-acetyl-7-methyl-5-(2-methylpyrimidin-5-yl)-1H-pyrazolo[3,4-c]pyridin-1-yl)acetyl)-N-(6-bromo-5-fluoro-3-methylpyridin-2-yl)-4-fluoro-4-(fluoromethyl)pyrrolidine-2-carboxamide] here?
A: < 1000 nM

Q: For `CC(=O)c1nn(CC(=O)N2C[C@@](F)(CF)C[C@H]2C(=O)Nc2cncc(Br)n2)c2c(C)nc(-c3cnc(C)nc3)cc12` [Compound 418, (2S,4R)-1-(2-(3-acetyl-7-methyl-5-(2-methylpyrimidin-5-yl)-1H-pyrazolo[3,4-c]pyridin-1-yl)acetyl)-N-(6-bromopyrazin-2-yl)-4-fluoro-4-(fluoromethyl)pyrrolidine-2-carboxamide], which IC50 is on record?
A: < 1000 nM

Q: For `CC(=O)c1nn(CC(=O)N2C[C@](F)(Cn3ccnn3)C[C@H]2C(=O)Nc2nc(Br)ccc2C)c2ccc(-c3cnc(C)nc3)cc12` [Compound 419], which IC50 is on record?
A: < 1000 nM

Q: How did the IC50 turn out when `CC(=O)c1nn(CC(=O)N2C[C@](F)(CN(C)C)C[C@H]2C(=O)Nc2nc(Br)ccc2C)c2ccc(-c3cnc(C)nc3)cc12` [Compound 420, (2S,4R)-1-(2-(3-acetyl-5-(2-methylpyrimidin-5-yl)-1H-indazol-1-yl)acetyl)-N-(6-bromo-3-methylpyridin-2-yl)-4-((dimethylamino)methyl)-4-fluoropyrrolidine-2-carboxamide] was run?
A: 1000 to 10000 nM

Q: How did the IC50 turn out when `CC(=O)c1nn(CC(=O)N2C[C@](F)(CF)C[C@H]2C(=O)Nc2nc(Br)ccc2C)c2ccc(-c3cnc(C)nc3)cc12` [Compound 422, (2S,4S)-1-(2-(3-acetyl-5-(2-methylpyrimidin-5-yl)-1H-indazol-1-yl)acetyl)-N-(6-bromo-3-methylpyridin-2-yl)-4-fluoro-4-(fluoromethyl)pyrrolidine-2-carboxamide] was run?
A: < 1000 nM

Q: Which IC50 does the source give for `CC(=O)c1nn(CC(=O)N2[C@H](C(=O)Nc3nc(Br)c(F)cc3C)C[C@@]3(Cc4nc(C)no4)C[C@@H]23)c2c(C)nc(-c3cnc(C)nc3)cc12` [Compound 423, (1R,3S,5R)-2-(2-(3-acetyl-7-methyl-5-(2-methylpyrimidin-5-yl)-1H-pyrazolo[3,4-c]pyridin-l-yl)acetyl)-N-(6-bromo-5-fluoro-3-methylpyridin-2-yl)-5-((3-methyl-1,2,4-oxadiazol-5-yl)methyl)-2-azabicyclo[3.1.0]hexane-3-carboxamide] here?
A: < 1000 nM

Q: How did the IC50 turn out when `CC(=O)c1nn(CC(=O)N2[C@H](C(=O)Nc3nc(Br)c(F)cc3C)C[C@@]3(Cc4nc(C)no4)C[C@@H]23)c2c(C)cc(-c3cnc(C)nc3)cc12` [Compound 424, (1R,3S,5R)-2-(2-(3-acetyl-7-methyl-5-(2-methylpyrimidin-5-yl)-1H-indazol-1-yl)acetyl)-N-(6-bromo-5-fluoro-3-methylpyridin-2-yl)-5-((3-methyl-1,2,4-oxadiazol-5-yl)methyl)-2-azabicyclo[3.1.0]hexane-3-carboxamide] was run?
A: < 1000 nM

Q: How did the IC50 turn out when `CC(=O)c1nn(CC(=O)N2[C@H](C(=O)Nc3nc(C(F)(F)F)ccc3C)C[C@@]3(Cc4nc(C)no4)C[C@@H]23)c2c(C)cc(-c3cnc(C)nc3)cc12` [Compound 425, (1R,3S,5R)-2-(2-(3-acetyl-7-methyl-5-(2-methylpyrimidin-5-yl)-1H-indazol-1-yl)acetyl)-5-((3-methyl-1,2,4-oxadiazol-5-yl)methyl)-N-(3-methyl-6-(trifluoromethyl)pyridin-2-yl)-2-azabicyclo[3.1.0]hexane-3-carboxamide] was run?
A: < 1000 nM

Q: For `CC(=O)c1cn(CC(=O)N2[C@H](C(=O)Nc3nc(Br)ccc3C)C[C@@]3(C)C[C@@H]23)c2c(C)cc(-c3cnc(C)nc3)cc12` [Compound 426, (1R,3S,5R)-2-(2-(3-acetyl-7-methyl-5-(2-methylpyrimidin-5-yl)-1H-indol-1-yl)acetyl)-N-(6-bromo-3-methylpyridin-2-yl)-5-methyl-2-azabicyclo[3.1.0]hexane-3-carboxamide], which IC50 is on record?
A: < 1000 nM

Q: Which IC50 does the source give for `CC(=O)c1nn(CC(=O)N2[C@H](C(=O)NCc3cccc(Cl)c3F)C[C@@]3(Cc4nc(C)no4)C[C@@H]23)c2c(C)cc(-c3cnc(C)nc3)cc12` [Compound 427, (1R,3S,5R)-2-(2-(3-acetyl-7-methyl-5-(2-methylpyrimidin-5-yl)-1H-indazol-1-yl)acetyl)-N-(3-chloro-2-fluorobenzyl)-5-((3-methyl-1,2,4-oxadiazol-5-yl)methyl)-2-azabicyclo[3.1.0]hexane-3-carboxamide] here?
A: < 1000 nM

Q: `CC(=O)c1nn(CC(=O)N2[C@H](C(=O)Nc3nc(Br)ccc3Cl)C[C@@]3(Cc4nc(C)no4)C[C@@H]23)c2c(C)cc(-c3cnc(C)nc3)cc12` [Compound 428, (1R,3S,5R)-2-(2-(3-acetyl-7-methyl-5-(2-methylpyrimidin-5-yl)-1H-indazol-1-yl)acetyl)-N-(6-bromo-3-chloropyridin-2-yl)-5-((3-methyl-1,2,4-oxadiazol-5-yl)methyl)-2-azabicyclo[3.1.0]hexane-3-carboxamide] was tested. Which IC50 did it give?
A: < 1000 nM

Q: For `CC(=O)c1nn(CC(=O)N2[C@H](C(=O)Nc3nc(Br)ccc3C)C[C@@]3(Cc4nnc(C)o4)C[C@@H]23)c2c(CF)cc(-c3cnc(C)nc3)cc12` [Compound 429, (1R,3S,5R)-2-(2-(3-acetyl-7-(fluoromethyl)-5-(2-methylpyrimidin-5-yl)-1H-indazol-1-yl)acetyl)-N-(6-bromo-3-methylpyridin-2-yl)-5-((5-methyl-1,3,4-oxadiazol-2-yl)methyl)-2-azabicyclo[3.1.0]hexane-3-carboxamide], which IC50 is on record?
A: < 1000 nM

Q: How did the IC50 turn out when `CC(=O)c1nn(CC(=O)N2C[C@](C)(F)C[C@H]2C(=O)Nc2nc(Br)ccc2C)c2ccc(-c3cnc(C)nc3)cc12` [Compound 430, (2S,4R)-1-{2-[3-Acetyl-5-(2-methylpyrimidin-5-yl)indazol-1-yl]acetyl}-N-(6-bromo-3-methylpyridin-2-yl)-4-fluoro-4-methylpyrrolidine-2-carboxamide] was run?
A: < 1000 nM

Q: How did the IC50 turn out when `Cc1ncc(-c2cc3c(C(N)=O)nn(CC(=O)N4[C@H](C(=O)Nc5nc(Br)c(F)cc5C)C[C@@]5(C)C[C@@H]45)c3c(C)n2)cn1` [Compound 431, 1-(2-((1R,3S,5R)-3-((6-bromo-5-fluoro-3-methylpyridin-2-yl)carbamoyl)-5-methyl-2-azabicyclo[3.1.0]hexan-2-yl)-2-oxoethyl)-7-methyl-5-(2-methylpyrimidin-5-yl)-1H-pyrazolo[3,4-c]pyridine-3-carboxamide] was run?
A: < 1000 nM

Q: How did the IC50 turn out when `CC(=O)c1nn(CC(=O)N2C[C@](C)(F)C[C@H]2C(=O)Nc2nc(Br)ccc2C)c2c(C)nc(-c3cnc(C)nc3)cc12` [Compound 432, (2S,4R)-1-(2-(3-acetyl-7-methyl-5-(2-methylpyrimidin-5-yl)-1H-pyrazolo[3,4-c]pyridin-1-yl)acetyl)-N-(6-bromo-3-methylpyridin-2-yl)-4-fluoro-4-methylpyrrolidine-2-carboxamide] was run?
A: < 1000 nM

Q: How did the IC50 turn out when `CC(=O)c1nn(CC(=O)N2C[C@](C)(F)C[C@H]2C(=O)Nc2nc(Br)ccc2C)c2c(C)cc(-c3cnc(C)nc3)cc12` [Compound 433, (2S,4R)-1-(2-(3-acetyl-7-methyl-5-(2-methylpyrimidin-5-yl)-1H-indazol-1-yl)acetyl)-N-(6-bromo-3-methylpyridin-2-yl)-4-fluoro-4-methylpyrrolidine-2-carboxamide] was run?
A: < 1000 nM

Q: How did the IC50 turn out when `CC(=O)c1nn(CC(=O)N2[C@H](C(=O)NCc3cccc(Cl)c3F)C[C@@]3(Cc4nnc(C)o4)C[C@@H]23)c2c(C)cc(-c3cnc(C)nc3)cc12` [Compound 434, (1R,3S,5R)-2-(2-(3-acetyl-7-methyl-5-(2-methylpyrimidin-5-yl)-1H-indazol-1-yl)acetyl)-N-(3-chloro-2-fluorobenzyl)-5-((5-methyl-1,3,4-oxadiazol-2-yl)methyl)-2-azabicyclo[3.1.0]hexane-3-carboxamide] was run?
A: < 1000 nM

Q: `CC(=O)c1nn(CC(=O)N2[C@H](C(=O)Nc3nc(C(F)(F)F)ccc3C)C[C@@]3(Cc4nnc(C)o4)C[C@@H]23)c2c(C)cc(-c3cnc(C)nc3)cc12` [Compound 435, (1R,3S,5R)-2-(2-(3-acetyl-7-methyl-5-(2-methylpyrimidin-5-yl)-1H-indazol-1-yl)acetyl)-5-((5-methyl-1,3,4-oxadiazol-2-yl)methyl)-N-(3-methyl-6-(trifluoromethyl)pyridin-2-yl)-2-azabicyclo[3.1.0]hexane-3-carboxamide] was tested. Which IC50 did it give?
A: < 1000 nM

Q: Which IC50 does the source give for `Cc1ncc(-c2cc3c(C(N)=O)nn(CC(=O)N4C[C@H]5C[C@H]5[C@H]4C(=O)Nc4nc(Br)ccc4C)c3c(C)n2)cn1` [Compound 436, 1-(2-((1R,25,5S)-2-((6-bromo-3-methylpyridin-2-yl)carbamoyl)-3-azabicyclo[3.1.0]hexan-3-yl)-2-oxoethyl)-7-methyl-5-(2-methylpyrimidin-5-yl)-1H-pyrazolo[3,4-c]pyridine-3-carboxamide] here?
A: < 1000 nM

Q: With `CSCc1cc(F)c(Br)nc1NC(=O)[C@@H]1C[C@@]2(C)C[C@H]2N1C(=O)Cn1nc(C(C)=O)c2cc(-c3cnc(C)nc3)ccc21` [Compound 438, (1R,5R)-2-(2-(3-Acetyl-5-(2-methylpyrimidin-5-yl)-1H-indazol-1-yl)acetyl)-N-(6-bromo-5-fluoro-3-((methylthio)methyl)pyridin-2-yl)-5-methyl-2-azabicyclo[3.1.0]hexane-3-carboxamide] as the compound, how does the IC50 read?
A: < 1000 nM
